Reference: ChEMBL document CHEMBL4715789, “Identification of a Potential Antimalarial Drug Candidate from a Series of 2-Aminopyrazines by Optimization of Aqueous Solubility and Potency across the Parasite Life Cycle” (J Med Chem, 2016)
Values after ≈ are worked out from the molar mass of the structure shown.

How the values were obtained:
[1] = Half-life in Sprague-dawley rat at 5 mg/kg, iv by LC-MS/MS analysis; assay type: ADME, organism-based; details: in vivo
[2] = Selectivity index, ratio of IC50 for cytotoxicity against CHO cells by MTT assay to IC50 for antiplasmodial activity against multidrug-sensitive Plasmodium falciparum NF54 infected in human erythrocytes; assay type: toxicity, cell-based; details: Chinese hamster, read-out: Ratio IC50
[3] = Metabolic stability in rat liver microsomes assessed as compound remaining at 0.1 uM measured after 30 mins in presence of cofactor NADPH by LC-MS/MS analysis; assay type: ADME, Microsome; details: read-out: Stabilty
[4] = Cmax(app) in NMRI mouse plasma infected with Plasmodium berghei ANKA at 3 mg/kg, po qd for 4 consecutive days and measured post last dose; assay type: ADME, organism-based; details: time 4 day
Plasmodium falciparum [5] = experiment: Antimalarial activity against Plasmodium falciparum 3D70087/N9 infected in NOD-SCID IL2Rgamma null mouse assessed as blood AUC level require to show 90% reduction in parasitemia administered orally on day 3 to 6 post-infection and measured day 7 post infection; assay type: functional, organism-based; details: time 5.0 day
[6] = Clearance in Sprague-dawley rat at 5 mg/kg, iv by LC-MS/MS analysis; assay type: ADME, organism-based; details: in vivo
Plasmodium falciparum [7] = experiment: Antiplasmodial activity against late stage (IV/V) Plasmodium falciparum NF54 gametocytes incubated for 48 hrs by luciferase reporter gene assay; assay type: functional, organism-based; details: NF54, 48 h
Plasmodium falciparum [8] = experiment: microbe, parasite or virus in culture; details: NF54, Erythrocyte
Description: Antiplasmodial activity against multidrug-sensitive Plasmodium falciparum NF54 infected in human erythrocytes assessed as reduction in [3H]hypoxanthine incorporation preincubated for 48 hrs followed by [3H]hypoxanthine addition and measured after 24 hrs by liquid scintillation counting method

[9] = Metabolic stability in human liver microsomes assessed as compound remaining at 0.1 uM measured after 30 mins in presence of cofactor NADPH by LC-MS/MS analysis; assay type: ADME, Microsome; details: read-out: Stabilty
[10] = Volume of distribution in Sprague-dawley rat at 5 mg/kg, iv by LC-MS/MS analysis; assay type: ADME, organism-based; details: in vivo
[11] = Aqueous solubility of compound in pH 2 0.01M HCl incubated for 2 hrs under shaking condition by shake-flask method based HPLC-DAD analysis; assay type: physicochemical
[12] = Oral bioavailability in Sprague-dawley rat at 20 mg/kg by LC-MS/MS analysis; assay type: ADME, organism-based; details: in vivo
[13] = biological target: Voltage-gated inwardly rectifying potassium channel KCNH2 (Homo sapiens, UniProt Q12809); experiment: Inhibition of human ERG by IonWorks patch clamp electrophysiology method
Sequence of Voltage-gated inwardly rectifying potassium channel KCNH2 (Q12809 whole entry): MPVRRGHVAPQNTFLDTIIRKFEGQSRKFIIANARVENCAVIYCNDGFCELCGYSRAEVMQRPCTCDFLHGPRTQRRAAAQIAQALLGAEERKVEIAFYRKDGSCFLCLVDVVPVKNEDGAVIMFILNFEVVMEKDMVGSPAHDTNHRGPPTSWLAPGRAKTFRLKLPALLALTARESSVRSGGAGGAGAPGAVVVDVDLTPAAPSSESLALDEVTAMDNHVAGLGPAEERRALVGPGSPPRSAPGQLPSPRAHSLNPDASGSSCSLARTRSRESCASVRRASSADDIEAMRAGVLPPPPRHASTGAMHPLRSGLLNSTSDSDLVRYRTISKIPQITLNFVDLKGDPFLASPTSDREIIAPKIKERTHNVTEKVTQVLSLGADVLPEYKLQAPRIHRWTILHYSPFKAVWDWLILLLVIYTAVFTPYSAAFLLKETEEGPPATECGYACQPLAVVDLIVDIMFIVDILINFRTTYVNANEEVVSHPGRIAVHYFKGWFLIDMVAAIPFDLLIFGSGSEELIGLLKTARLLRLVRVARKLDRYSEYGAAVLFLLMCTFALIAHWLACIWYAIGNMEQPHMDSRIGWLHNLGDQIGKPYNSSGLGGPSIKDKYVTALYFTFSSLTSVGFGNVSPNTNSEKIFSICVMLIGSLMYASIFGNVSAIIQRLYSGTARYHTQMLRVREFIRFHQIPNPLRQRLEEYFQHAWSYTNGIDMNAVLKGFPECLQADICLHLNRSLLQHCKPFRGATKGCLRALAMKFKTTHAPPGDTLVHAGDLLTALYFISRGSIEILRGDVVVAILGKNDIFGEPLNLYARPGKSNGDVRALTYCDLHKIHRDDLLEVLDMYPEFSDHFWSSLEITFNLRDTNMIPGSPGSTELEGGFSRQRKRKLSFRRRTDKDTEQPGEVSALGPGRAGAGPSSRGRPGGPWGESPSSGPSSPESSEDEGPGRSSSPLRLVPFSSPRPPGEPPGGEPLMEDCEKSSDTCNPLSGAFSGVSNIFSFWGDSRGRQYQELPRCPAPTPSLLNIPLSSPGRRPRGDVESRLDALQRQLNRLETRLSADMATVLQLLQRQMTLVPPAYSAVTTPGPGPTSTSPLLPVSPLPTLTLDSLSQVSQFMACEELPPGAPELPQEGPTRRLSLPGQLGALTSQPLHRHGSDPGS

Plasmodium falciparum [14] = experiment: Antiplasmodial activity against Plasmodium falciparum 3D70087/N9 infected in NOD-SCID IL2Rgamma null mouse assessed as reduction in parasitemia administered orally on day 3 to 6 post-infection and measured day 7 post infection by TER-119-PE and […] dye based flow cytometry; assay type: functional; details: 3D70087/N9, po, 120 h, time 5 day
[15] = Metabolic stability in mouse liver microsomes assessed as compound remaining at 0.1 uM measured after 30 mins in presence of cofactor NADPH by LC-MS/MS analysis; assay type: ADME, Microsome; details: read-out: Stabilty
Plasmodium falciparum [16] = experiment: microbe, parasite or virus in culture; details: K1, Erythrocyte
Description: Antiplasmodial activity against multidrug-resistant Plasmodium falciparum K1 infected in erythrocytes assessed as reduction in [3H]hypoxanthine incorporation preincubated for 48 hrs followed by [3H]hypoxanthine addition and measured after 24 hrs by liquid scintillation counting method

[17] = Apparent average plasma concentration in NMRI mouse plasma infected with Plasmodium berghei ANKA at 3 mg/kg, po qd for 4 consecutive days and measured post last dose; assay type: ADME, organism-based; details: in vivo, 96 h, time 4 day
[18] = Aqueous solubility of compound in pH 6.5 PBS incubated for 2 hrs under shaking condition by shake-flask method based HPLC-DAD analysis; assay type: physicochemical
Plasmodium falciparum [19] = experiment: Antiplasmodial activity against early stage (II/III) Plasmodium falciparum NF54 gametocytes incubated for 48 hrs by luciferase reporter gene assay; assay type: functional, organism-based; details: NF54, 48 h
hERG (KCNH2) = experiment: Selectivity ratio of IC50 for inhibition of human ERG by IonWorks patch clamp electrophysiology method to IC50 for antiplasmodial activity against multidrug-sensitive Plasmodium falciparum NF54 infected in human erythrocytes; assay type: toxicity, cell-based; details: read-out: Ratio IC50
[20] = AUC(app) in NMRI mouse plasma infected with Plasmodium berghei ANKA at 3 mg/kg, po qd for 4 consecutive days and measured post last dose; assay type: ADME, organism-based; details: time 4 day
Plasmodium berghei [21] = experiment: Antiplasmodial activity against Plasmodium berghei ANKA infected in NMRI mouse model assessed as mean survival days at 10 mg/kg, po qd for 4 consecutive day; assay type: functional; details: time 4 day
Plasmodium berghei [22] = experiment: Antiplasmodial activity against Plasmodium berghei ANKA infected in NMRI mouse model assessed as reduction in parasitemia administered orally once a day for 4 consecutive days measured at day 7 post infection by flow cytometry analysis; assay type: functional; details: po, 96 h, time 4 day
Plasmodium berghei [23] = experiment: Antiplasmodial activity against Plasmodium berghei ANKA infected in NMRI mouse assessed as reduction in parasitemia at 10 mg/kg, po qd for 4 consecutive days measured at day 7 post infection by flow cytometry analysis; assay type: functional; parameters: scale not given: the % may be the effect or the level left; details: time 4 day
Plasmodium berghei [24] = experiment: Antiplasmodial activity against Plasmodium berghei ANKA infected in NMRI mouse model assessed as mean survival days at 3 mg/kg, po qd for 4 consecutive day; assay type: functional; details: time 4 day
[25] = Half-life in Sprague-dawley rat at 20 mg/kg, po by LC-MS/MS analysis; assay type: ADME, organism-based; details: in vivo
Plasmodium berghei [26] = experiment: Antiplasmodial activity against luciferase expressing Plasmodium berghei sporozoites infected in human HepG2 cells preincubated with compound for 18 hrs followed by plasmodium infection measured after 48 hrs by bioluminescence assay; assay type: functional, organism-based
Plasmodium berghei [27] = experiment: Antiplasmodial activity against Plasmodium berghei ANKA infected in NMRI mouse assessed as reduction in parasitemia at 3 mg/kg, po qd for 4 consecutive days measured at day 7 post infection by flow cytometry analysis; assay type: functional; parameters: scale not given: the % may be the effect or the level left; details: time 4 day

| SMILES | selectivity ratio [2] | remaining at 0.5 h, 0.1 µM [3] [%] | Cmax [4] [nM] | AUC (Plasmodium falciparum [5]) [ng·h/mL] | IC50 (Plasmodium falciparum [7]) [nM] | IC50 (Plasmodium falciparum [8]) [nM] | remaining at 0.5 h, 0.1 µM [9] [%] | solubility thermodynamic at 2 h [11] [µM] | bioavailability [12] [%] | IC50 [13] [nM] | ED90 (Plasmodium falciparum [14]) [mg/kg] | remaining at 0.5 h, 0.1 µM [15] [%] | IC50 (Plasmodium falciparum [16]) [nM] | Cave [17] [nM] | solubility thermodynamic at 2 h [18] [µM] | IC50 (Plasmodium falciparum [19]) [nM] | AUC at 96 h [20] [µM·h] | MSD (Plasmodium berghei [21]) [days] | MSD (Plasmodium berghei [24]) [days] | Activity (Plasmodium berghei [27]) [%] | also measured |
| --- | --- | --- | --- | --- | --- | --- | --- | --- | --- | --- | --- | --- | --- | --- | --- | --- | --- | --- | --- | --- | --- |
| Nc1ncc(-c2ccc(C(=O)N3CC[C@@H](O)C3)cc2)nc1-c1ccc(C(F)(F)F)cc1 | > 1800 | > 90 | 3290 | 60 | 137 | 22 | > 90 | 103 (≈ 44.1 µg/mL) | 71 | > 33000 | 0.14 | > 90 | 20 | 1930 | 90 (≈ 38.6 µg/mL) | 323 | 33.2 | 26 | 8 |  | half-life [1]: 5.3 h; clearance [6]: 13.5 mL/min/kg; Vd [10]: 8.2 L/kg; selectivity ratio (hERG (KCNH2)): > 1000; ED90 (Plasmodium berghei [22]): 1.1 mg/kg; Activity (Plasmodium berghei [23]): 100%; half-life [25]: 7.2 h; IC50 (Plasmodium berghei [26]): 14 nM |
| Nc1ncc(-c2ccc(C(=O)N3CCC(O)C3)cc2)nc1-c1ccc(C(F)(F)F)cc1 (configuration not stated) |  | > 90 | 3610 |  |  | 9.6 | > 90 | 129 (≈ 55.3 µg/mL) |  |  |  | > 90 | 6.8 | 2060 | 77 (≈ 33 µg/mL) |  | 34.7 |  | 8 | 99.6 |  |
| Nc1ncc(-c2ccc(C(=O)N3CCC(N)C3)cc2)nc1-c1ccc(C(F)(F)F)cc1 (configuration not stated) |  |  |  |  |  | 19 |  | 165 (≈ 70.5 µg/mL) |  | 10000 |  |  | 12 |  | 102 (≈ 43.6 µg/mL) |  |  |  | 7 | 71 | selectivity ratio (hERG (KCNH2)): 526 |
| CN1CCCN(C(=O)c2ccc(-c3cnc(N)c(-c4ccc(C(F)(F)F)cc4)n3)cc2)CC1 |  |  |  |  |  | 6.8 |  | 200 (≈ 91.1 µg/mL) |  | 5000 |  |  | 5.7 |  | 152 (≈ 69.2 µg/mL) |  |  |  | 7 | 90 |  |
| Nc1ncc(-c2ccc(C(=O)N3CC(O)C3)cc2)nc1-c1ccc(C(F)(F)F)cc1 | > 1800 | > 90 |  | 22 | 45 | 9.2 | > 90 | 110 (≈ 45.6 µg/mL) | 20 |  | 0.17 | > 90 | 7 |  | 55 (≈ 22.8 µg/mL) | 415 |  | >30 | 10 | 99.7 | half-life [1]: 3 h; clearance [6]: 22 mL/min/kg; Vd [10]: 5.7 L/kg; Activity (Plasmodium berghei [23]): 99.9%; half-life [25]: 5.2 h; IC50 (Plasmodium berghei [26]): 2.7 nM |
| Nc1ncc(-c2ccc(C(=O)O)cc2)nc1-c1ccc(C(F)(F)F)nc1 | > 1800 | > 90 | 2290 | < 440 | 845 | 19 | > 90 | 191 (≈ 68.8 µg/mL) | 38 |  | < 0.5 | > 90 | 26 | 1480 | 178 (≈ 64.1 µg/mL) | 168 | 30.8 | 10 | 7 | 93 | Activity (Plasmodium berghei [23]): 99.8%; half-life [25]: 3.9 h; IC50 (Plasmodium berghei [26]): 528 nM |
| NC(=O)c1ccc(-c2cnc(N)c(-c3ccc(C(F)(F)F)nc3)n2)cc1 |  | > 90 | 5000 |  |  | 20 | > 90 | < 5 |  |  |  | > 90 | 16 | 2900 | < 5 |  | 69.3 | 14 | 7.7 |  |  |
| NC(=O)c1ccc(-c2cnc(N)c(-c3ccc(C(F)(F)F)cc3)n2)cc1 | > 1800 | > 90 | 4000 | < 75 | 237 | 14 | > 90 | 80 (≈ 28.7 µg/mL) | 25 |  | < 0.1 | > 90 | 13 | 1800 | < 5 | 754 | 42.3 | >30 | 20 |  | ED90 (Plasmodium berghei [22]): 0.3 mg/kg; half-life [25]: 7 h |
| Nc1ncc(-c2ccc(C(=O)N3CCC(O)CC3)cc2)nc1-c1ccc(C(F)(F)F)nc1 |  | > 90 |  |  |  | 10 | > 90 | 200 (≈ 88.7 µg/mL) |  | > 33000 |  | > 90 | 9 |  | 184 (≈ 81.6 µg/mL) |  |  | 7 | 7 | 64 | selectivity ratio (hERG (KCNH2)): > 868; Activity (Plasmodium berghei [23]): 85% |
| CC(C)(C)N1CCN(C(=O)c2ccc(-c3cnc(N)c(-c4ccc(C(F)(F)F)nc4)n3)cc2)CC1 |  |  | 1520 |  |  | 8.9 |  | 200 (≈ 96.9 µg/mL) |  |  |  |  | 6.4 | 570 | 113 (≈ 54.8 µg/mL) |  | 4.34 |  | 14 | 88 |  |
